Test results as given in patent publication US20250215029A1 (Recludix Pharma, Inc., priority 2022, published 2025).
Like-named read-outs stand apart in the source and are kept apart here.

Columns and labels:
pY705-STAT3 in PBMC = molecular target: T1, pY705-STAT3 in PBMC (Homo sapiens, UniProt P40763); assay: MSD-pSTAT-PBMC Assay (pSTAT3, IL-6 stimulated); assay type: cell-based; details: compound 3 hrs, then 10 ng/mL IL-6 for 10 min
T1 construct: Cryopreserved Peripheral Blood Mononuclear Cells (PBMC) are from AllCells; host or cells: cryopreserved PBMC
Summary of the method: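 PBMC (human, cryopreserved, overnight recovery) + cpd 3 hrs → IL-6 10 ng/mL (STAT3) or IL-4 1 ng/mL (STAT6) ×10 min → lysis with protease/phosphatase inhibitors → MSD capture/phospho detection. IC50, variable slope, DMSO-normalized.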

pY641-STAT6 in PBMC = molecular target: T2, pY641-STAT6 in PBMC (Homo sapiens, UniProt P42226); assay: MSD-pSTAT-PBMC Assay (pSTAT6, IL-4 stimulated); assay type: cell-based; details: compound 3 hrs, then 1 ng/mL IL-4 for 10 min
T2 construct: Cryopreserved Peripheral Blood Mononuclear Cells (PBMC) are from AllCells; host or cells: cryopreserved PBMC
T2 sequence (P42226 1-847): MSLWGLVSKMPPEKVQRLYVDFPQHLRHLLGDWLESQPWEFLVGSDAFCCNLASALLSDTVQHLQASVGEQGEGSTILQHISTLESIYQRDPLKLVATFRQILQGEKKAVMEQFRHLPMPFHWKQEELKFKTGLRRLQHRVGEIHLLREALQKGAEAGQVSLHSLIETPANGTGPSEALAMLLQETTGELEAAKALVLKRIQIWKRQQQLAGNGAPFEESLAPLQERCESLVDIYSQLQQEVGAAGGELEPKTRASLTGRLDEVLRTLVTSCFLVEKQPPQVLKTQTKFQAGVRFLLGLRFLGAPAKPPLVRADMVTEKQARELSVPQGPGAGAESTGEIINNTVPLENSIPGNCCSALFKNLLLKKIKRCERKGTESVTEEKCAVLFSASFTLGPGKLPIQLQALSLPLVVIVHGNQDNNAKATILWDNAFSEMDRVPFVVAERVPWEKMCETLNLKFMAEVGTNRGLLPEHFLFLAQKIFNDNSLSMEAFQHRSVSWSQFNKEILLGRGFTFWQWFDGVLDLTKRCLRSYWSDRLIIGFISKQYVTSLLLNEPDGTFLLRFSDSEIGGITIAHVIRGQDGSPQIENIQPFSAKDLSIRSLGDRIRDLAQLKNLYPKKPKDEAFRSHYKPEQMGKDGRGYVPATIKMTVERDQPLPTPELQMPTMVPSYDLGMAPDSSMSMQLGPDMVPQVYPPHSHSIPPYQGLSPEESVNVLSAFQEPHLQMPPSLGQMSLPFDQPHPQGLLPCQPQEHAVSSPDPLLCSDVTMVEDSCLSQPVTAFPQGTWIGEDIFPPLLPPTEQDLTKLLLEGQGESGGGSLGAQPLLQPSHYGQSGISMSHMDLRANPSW
Summary of the method: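 Cells are preincubated with compound for 3 hrs, then stimulated for 10 min, IL-4 at 1 ng/mL driving STAT6 phosphorylation and IL-6 at 10 ng/mL driving STAT3. Phospho-STAT in lysates is quantified by MSD immunoassay, and IC50 is fitted after subtracting unstimulated wells.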

[1] = PBMC, Table 115, read-out: STAT3
[2] = PBMC, Table 1114, read-out: pSTAT3
[3] = PBMC, Table 1114, read-out: pSTAT6
[4] = PBMC, Table 115, read-out: STAT6

T1 sequence (P40763 whole entry): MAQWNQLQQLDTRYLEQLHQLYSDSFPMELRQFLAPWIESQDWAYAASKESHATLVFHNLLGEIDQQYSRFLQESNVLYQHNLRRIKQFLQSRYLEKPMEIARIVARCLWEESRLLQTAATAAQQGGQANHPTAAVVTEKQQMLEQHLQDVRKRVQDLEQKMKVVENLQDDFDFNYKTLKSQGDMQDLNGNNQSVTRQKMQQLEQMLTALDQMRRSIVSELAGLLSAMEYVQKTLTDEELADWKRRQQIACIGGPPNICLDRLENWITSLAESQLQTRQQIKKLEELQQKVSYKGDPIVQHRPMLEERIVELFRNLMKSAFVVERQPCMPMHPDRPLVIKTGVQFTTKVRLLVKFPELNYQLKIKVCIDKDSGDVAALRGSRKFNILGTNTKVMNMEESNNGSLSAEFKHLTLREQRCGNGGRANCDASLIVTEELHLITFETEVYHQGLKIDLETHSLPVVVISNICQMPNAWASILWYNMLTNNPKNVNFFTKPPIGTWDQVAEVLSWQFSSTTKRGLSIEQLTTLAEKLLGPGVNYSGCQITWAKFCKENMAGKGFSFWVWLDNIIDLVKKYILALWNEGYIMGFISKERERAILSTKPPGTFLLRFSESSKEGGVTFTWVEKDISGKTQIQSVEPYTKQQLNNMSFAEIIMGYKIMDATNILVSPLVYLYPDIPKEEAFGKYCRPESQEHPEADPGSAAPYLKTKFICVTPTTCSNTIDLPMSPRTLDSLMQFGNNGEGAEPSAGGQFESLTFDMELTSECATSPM

Row | SMILES | IC50 (pY705-STAT3 in PBMC; [2]) | IC50 (pY641-STAT6 in PBMC; [3]) | IC50 (pY705-STAT3 in PBMC; [1]) | IC50 (pY641-STAT6 in PBMC; STAT6, PBMC, Table 115) | also measured
1 | CCCOC(=O)[C@H](C)NP(=O)(Cc1ccc2sc(C(=O)N[C@H]3CCC[C@H]4CC[C@@H](C(=O)N5CC(c6cnccc6OC)C5)N4C3=O)cc2c1)Oc1ccccc1 (stereo partly drawn) [Compound 255, propyl (((2-(((3S,6S,9aS)-3-(3-(4-methoxypyridin-3-yl)azetidine-1-carbonyl)-5-oxooctahydro-1H-pyrrolo[1,2-a]azepin-6-yl)carbamoyl)benzo [b]thiophen-5-yl)methyl)(phenoxy)phosphoryl)-L-alaninate] |  |  | < 0.1 µM | > 3 µM | 
2 | CCCOC(=O)[C@H](C)NP(=O)(Oc1ccccc1)C(F)c1ccc2sc(C(=O)N[C@H]3C[C@H](C)C[C@H]4CC[C@@H](C(=O)N5CC(c6cnccc6F)C5)N4C3=O)cc2c1 (stereo partly drawn) [Compound 263, propyl ((fluoro(2-(((3S,6S,8S,9aR)-3-(3-(4-fluoropyridin-3-yl)azetidine-1-carbonyl)-8-methyl-5-oxooctahydro-1H-pyrrolo[1,2-a]azepin-6-yl)carbamoyl)benzo [b]thiophen-5-yl)methyl)(phenoxy)phosphoryl)-L-alaninate] |  |  | < 0.1 µM | > 3 µM | 
3 | CC(C)CC(=O)SCCOP(=O)(OCCSC(=O)CC(C)C)C(F)(F)c1ccc2sc(C(=O)N[C@H]3CCCC[C@H]4CC[C@@H](C(=O)N5CC(c6ccccc6)CC56CC6)N4C3=O)cc2c1 (stereo partly drawn) [Compound 1082, S,S′-((((difluoro(2-(((3S,6S,10aS)-5-oxo-3-(6-phenyl-4-azaspiro[2.4]heptane-4-carbonyl)decahydropyrrolo[1,2-a]azocin-6-yl)carbamoyl)benzo [b]thiophen-5-yl)methyl)phosphoryl)bis(oxy))bis(ethane-2,1-diyl)) bis(3-methylbutanethioate)] |  |  | > 3 µM |  | IC50 (pY641-STAT6 in PBMC; [4]): 0.1 to 1 µM
4 | COCCC(=O)SCCOP(=O)(OCCSC(=O)CCOC)C(F)(F)c1ccc2sc(C(=O)N[C@H]3CCC[C@H]4CC[C@@H](C(=O)N5CC(c6cccnc6)C5)N4C3=O)cc2c1 [Compound 1106, S,S′-((((difluoro(2-(((3S,6S,9aS)-5-oxo-3-(3-(pyridin-3-yl)azetidine-1-carbonyl)octahydro-1H-pyrrolo[1,2-a]azepin-6-yl)carbamoyl)benzo [b]thiophen-5-yl)methyl)phosphoryl)bis(oxy))bis(ethane-2,1-diyl)) bis(3-methoxy-propanethioate)] |  |  | < 0.1 µM |  | IC50 (pY641-STAT6 in PBMC; [4]): 0.1 to 1 µM
5 | CC(C)(C)C(=O)OCOP(=O)(OCOC(=O)C(C)(C)C)[C@@H](F)c1ccc2sc(C(=O)N[C@H]3CCCC[C@H]4CC[C@@H](C(=O)N5C[C@@H](C#N)[C@H](c6ccccc6)C5)N4C3=O)cc2c1 (single isomer, unassigned) [Compound 183, ((((R)- or (S)-(2-(((3S,6S,10aS)-3-((3S,4R or 3R,4S)-3-cyano-4-phenylpyrrolidine-1-carbonyl)-5-oxodecahydropyrrolo[1,2-a]azocin-6-yl)carbamoyl)benzo[b]thiophen-5-yl)fluoromethyl)phosphoryl)bis(oxy))bis(methylene)bis(2,2-dimethylpropanoate))] | 0.1 to 1 µM | < 0.1 µM |  |  | 
6 | CC(C)OC(=O)[C@H](C)NP(=O)(Cc1ccc2sc(C(=O)N[C@H]3CCC[C@H]4CC[C@@H](C(=O)N5CC(c6cccnc6)C5)N4C3=O)cc2c1)Oc1ccccc1 (stereo partly drawn) [Compound 195, isopropyl (((2-(((3S,6S,9aS)-5-oxo-3-(3-(pyridin-3-yl)azetidine-1-carbonyl)octa-hydro-1H-pyrrolo[1,2-a]azepin-6-yl)carbamoyl)benzo[b]thiophen-5-yl)methyl) (phenoxy)phosphoryl)-L-alaninate] | 0.1 to 1 µM |  |  |  | IC50 (pY641-STAT6 in PBMC; pSTAT6, PBMC, Table 1114): > 3 µM
7 | CCCOC(=O)[C@H](C)NP(=O)(Oc1ccccc1)C(F)c1ccc2sc(C(=O)N[C@H]3CCC[C@H]4CC[C@@H](C(=O)N5CC(c6cnccc6OC)C5)N4C3=O)cc2c1 (stereo partly drawn) [Compound 262, propyl ((fluoro(2-(((3S,6S,9aS)-3-(3-(4-methoxypyridin-3-yl)azetidine-1-carbonyl)-5-oxooctahydro-1H-pyrrolo[1,2-a]azepin-6-yl)carbamoyl)benzo [b]thiophen-5-yl)methyl)(phenoxy)phosphoryl)-L-alaninate] |  |  | < 0.1 µM | > 3 µM | 
8 | CCCOC(=O)[C@H](C)NP(=O)(Oc1ccccc1)[C@@H](F)c1ccc2sc(C(=O)N[C@H]3CCC[C@H]4CC[C@@H](C(=O)N5C[C@@H](c6ccccc6)[C@H](C#N)C56CC6)N4C3=O)cc2c1 (stereo partly drawn) [Compound 382, propyl (((R)-(2-(((3S,6S,9aS)-3-((6R,7S)-7-cyano-6-phenyl-4-azaspiro[2.4]heptane-4-carbonyl)-5-oxooctahydro-1H-pyrrolo[1,2-a]azepin-6-yl)carbamoyl)benzo [b]thiophen-5-yl)fluoromethyl) (phenoxy)phosphoryl)-L-alaninate] |  |  |  | < 0.1 µM | IC50 (pY705-STAT3 in PBMC; STAT3, PBMC, Table 115): > 3 µM

The next lines start with results.

Row | IC50 (pY705-STAT3 in PBMC; [2]) | IC50 (pY641-STAT6 in PBMC; [3]) | SMILES | IC50 (pY705-STAT3 in PBMC; [1]) | IC50 (pY641-STAT6 in PBMC; STAT6, PBMC, Table 115) | also measured
9 | 0.1 to 1 µM | < 0.1 µM | CC(C)(C)C(=O)OCOP(=O)(OCOC(=O)C(C)(C)C)C(F)(F)c1ccc2sc(C(=O)NC3CCCCC4CCCC(C(=O)N5CC(C#N)C(c6ccccc6)C5)N4C3=O)cc2c1 [Compound 169, ((((2-(((4S,7S,11aS)-4-((rel- trans)-3-cyano-4-phenylpyrrolidine-1-carbonyl)-6-oxodecahydro-2H-pyrido[1,2-a]azocin-7-yl)carbamoyl)benzo[b]thiophen-5-yl)difluoromethyl)phosphroyl)bis(oxy)) bis(methylene) bis(2,2-dimethylpropaneoate)] |  |  | 
10 | < 0.1 µM | > 3 µM | CC(C)(C)C(=O)OCOP(=O)(OCOC(=O)C(C)(C)C)C(F)(F)c1ccc2sc(C(=O)N[C@@]3(C)CCCC[C@H]4CC[C@@H](C(=O)N5CC(C(=O)N6CCOCC6)C5)N4C3=O)cc2c1 [Compound 186, (((difluoro(2-(((3S,6S, 10aS)-6-methyl-3-(3-(morpholine-4-carbonyl)azetidine-1-carbonyl)-5-oxodeca-hydropyrrolo [1,2-a]azocin-6-yl)carbamoyl)benzo[b]thiophen-5-yl)methyl)phosphoryl)bis (oxy))bis (methylene) bis(2,2-dimethyl-propanoate)] |  |  | 
11 | > 3 µM | < 0.1 µM | CC(C)CC(=O)SCCOP(=O)(OCCSC(=O)CC(C)C)C(F)(F)c1ccc2sc(C(=O)N[C@H]3CCCCC4CC[C@@H](C(=O)N5C[C@H](c6ccccc6)[C@@H](C#N)C5)N4C3=O)cc2c1 (single isomer, unassigned) [Compound 163, S,S′-(((((2-(((3S,6S,10aS)-3-((3R,4S or 3S,4R)-3-cyano-4-phenylpyrrolidine-1-carbonyl)-5-oxodecahydro-pyrrolo[1,2-a]azocin-6-yl)carbamoyl)benzo[b]thiophen-5-yl)difluoromethyl)phosphoryl)bis(oxy))bis(ethane-2,1-diyl)) bis(3-methylbutane thioate)] |  |  | 
12 | < 0.1 µM | 1 to 3 µM | CC(C)CC(=O)SCCOP(=O)(OCCSC(=O)CC(C)C)C(F)(F)c1ccc2sc(C(=O)N[C@H]3CCC[C@H]4CC[C@@H](C(=O)N5CC(c6cccnc6)C5)N4C3=O)cc2c1 [Compound 177, S,S′-((((difluoro(2-(((3S,6S,9aS)-5-oxo-3-(3-(pyridin-3-yl)azetidine-1-carbonyl)octahydro-1H-pyrrolo[1,2-a]azepin-6-yl)carbamoyl)benzo[b]thiophen-5-yl)methyl)phosphoryl)bis(oxy))bis(ethane-2,1-diyl)) bis(3-methylbutane thioate)] |  |  | 
